Values quoted from earlier work, collected in paper PMC5423902, “CXCL9-Derived Peptides Differentially Inhibit Neutrophil Migration In Vivo through Interference with Glycosaminoglycan Interactions” (Frontiers in Immunology, 2017).

Test system: CXCL8(1-77) binding to heparin
Details: compared with CXCL9(74-103) missing 5 to 12 NH2-terminal residues; cited from earlier work
Procedure: To further investigate the role of the COOH-terminal amino acids, the ability of CXCL9(74-93) to inhibit binding of chemokines to heparin and HS was evaluated. CXCL9(74-93) and CXCL9(74-103) together with a COOH-terminal peptide of one of the strongest GAG-binding chemokines, namely, CXCL4(47-70), were compared in an ELISA-like assay to compete with CXCL8 for heparin bind ...

## 74KKKQKNGKKHQKKKVLKVRKSQRSRQKKTT103 [CXCL9(74-103), COOH-terminal peptide of CXCL9]
  competition with CXCL8 for heparin binding: more potently competes with CXCL8 for binding to heparin
